Results reported in US6737383B1, “Herbicidal oxadiazolidines” (priority 1999, dated 2004).

Key:
blackgrass = experiment: Test B pre/postemergence blackgrass; format: in vivo, Alopecurus myosuroides
Procedure, shortened: (§1)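 Response is a visual 0-to-10 score relative to untreated plants, where 0 means no effect and 10 means complete control, taken twelve to sixteen days after application. Treatments went onto soil at planting and onto foliage of 1- to 4-leaf plants, using a surfactant-containing non-phytotoxic solvent.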

sugar beet = experiment: Test B pre/postemergence sugar beet; format: in vivo, Beta vulgaris; settings: for Plant response rating, Sugarbeets: Postemergence
Procedure, shortened: as §1

bedstraw = experiment: Test B pre/postemergence bedstraw; format: in vivo, Galium aparine
Procedure, shortened: as §1

bamyardgrass = experiment: Test B flood test barnyardgrass; format: in vivo, Echinochloa crus-galli; settings: Rate 250 g/ha; Pre-emergence (flood test species); scale 0 to 10, 0 is no effect, 10 is complete control
Procedure, shortened: (§2)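 Plants were grown to the 2-leaf stage before treatment with test chemical, then held in a greenhouse for twelve to sixteen days. Injury was visually rated against untreated controls on a 0–10 scale, where 0 is no effect and 10 is complete control.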

duck salad = experiment: Test B flood test duck salad; format: in vivo, Heteranthera limosa; settings: Rate 250 g/ha; Pre-emergence (flood test species); scale 0 to 10, 0 is no effect, 10 is complete control
Procedure, shortened: as §2

corn = experiment: Test B pre/postemergence corn; format: in vivo, Zea mays
Procedure, shortened: as §1

smallflower flatsedge = experiment: Test B flood test smallflower flatsedge; format: in vivo, Cyperus difformis; settings: Rate 250 g/ha; Pre-emergence (flood test species); scale 0 to 10, 0 is no effect, 10 is complete control
Procedure, shortened: as §2

giant foxtail = experiment: Test B pre/postemergence giant foxtail; format: in vivo, Setaria faberii
Procedure, shortened: as §1

wild oat = experiment: Test B pre/postemergence wild oat; format: in vivo, Avena fatua; settings: for Plant response rating, Wild oats: Postemergence
Procedure, shortened: as §1

rice = experiment: Test B flood test rice; format: in vivo, Oryza sativa; settings: Rate 250 g/ha; Pre-emergence (flood test species); scale 0 to 10, 0 is no effect, 10 is complete control
Procedure, shortened: as §2

morningglory = experiment: Test B pre/postemergence morningglory; format: in vivo, Ipomoea hederacea
Procedure, shortened: as §1

wheat = experiment: Test B pre/postemergence wheat; format: in vivo, Triticum aestivum; settings: for Plant response rating, Wheat: Postemergence
Procedure, shortened: as §1

rape = experiment: Test B pre/postemergence rape; format: in vivo, Brassica napus
Procedure, shortened: as §1

soybean = experiment: Test B pre/postemergence soybean; format: in vivo, Glycine max; settings: for Plant response rating, Soybean: Postemergence
Procedure, shortened: as §1

cocklebur = experiment: Test B pre/postemergence cocklebur; format: in vivo, Xanthium strumarium
Procedure, shortened: as §1

purple nutsedge = experiment: Test B pre/postemergence purple nutsedge; format: in vivo, Cyperus rotundus
Procedure, shortened: as §1

surinam grass = experiment: Test B pre/postemergence surinam grass; format: in vivo, Brachiaria decumbens
Procedure, shortened: as §1

crabgrass = experiment: Test B pre/postemergence crabgrass; format: in vivo, Digitaria sanguinalis
Procedure, shortened: as §1

velvetleaf = experiment: Test B pre/postemergence velvetleaf; format: in vivo, Abutilon theophrasti; settings: for Plant response rating, Velvetleaf: Postemergence
Procedure, shortened: as §1

pigweed = experiment: Test B pre/postemergence pigweed; format: in vivo, Amaranthus retroflexus; settings: for Plant response rating, Redroot pigweed: Postemergence
Procedure, shortened: as §1

[1] = Postemergence, Rate 62 g/ha, scale of 0 to 10, 0 is no effect, 10 is complete control
[2] = Postemergence, Rate 125 g/ha, scale 0 to 10, 0 is no effect, 10 is complete control
[3] = Postemergence, Rate 500 g/ha, scale of 0 to 10 where 0 is no effect and 10 is complete control
[4] = Preemergence, Rate 62 g/ha, scale 0 to 10 (0 no effect, 10 complete control)
[5] = Preemergence, Rate 125 g/ha, scale 0 to 10, 0 is no effect, 10 is complete control
[6] = Preemergence, Rate 500 g/ha, scale of 0 to 10 where 0 is no effect and 10 is complete control
[7] = Rate 250 g/ha, Postemergence, scale of 0 to 10 where 0 is no effect and 10 is complete control
[8] = Rate 500 g/ha, scale of 0 to 10 where 0 is no effect and 10 is complete control
[9] = Rate 250 g/ha, scale of 0 to 10 where 0 is no effect and 10 is complete control

Compound: Cc1noc(C)c1Cn1c(=O)on(C(=O)N(c2ccccc2)C(C)C)c1=O [Compound 569]
- Blackgrass plant response rating (blackgrass; [1]): 0
- Blackgrass plant response rating (blackgrass; [2]): 0
- Plant response rating, Blackgrass (blackgrass; [3]): 3
- Blackgrass plant response rating (blackgrass; [4]): 0
- Blackgrass plant response rating (blackgrass; [5]): 0
- Blackgrass plant response rating (0 to 10 scale) (blackgrass; Preemergence, Rate 250 g/ha): 9
- Blackgrass plant response rating (blackgrass; [6]): 9
- Plant response rating, Blackgrass (blackgrass; [7]): 2
- Plant response rating, Sugarbeets (sugar beet; [8]): 0
- Sugarbeets plant response rating (sugar beet; [4]): 0
- Sugarbeets plant response rating (sugar beet; [5]): 0
- Sugarbeets plant response rating (0 to 10 scale) (sugar beet; Preemergence, Rate 250 g/ha): 0
- Sugarbeets plant response rating (sugar beet; [6]): 3
- Plant response rating, Sugarbeets (sugar beet; [9]): 0
- Bedstraw plant response rating (bedstraw; [1]): 0
- Bedstraw plant response rating (bedstraw; [4]): 0
- Bedstraw plant response rating (bedstraw; [5]): 3
- Bedstraw plant response rating (0 to 10 scale) (bedstraw; Preemergence, Rate 250 g/ha): 0
- Bedstraw plant response rating (bedstraw; [6]): 0
- Barnyardgrass plant response rating (bamyardgrass): 0
- Ducksalad plant response rating (duck salad): 0
- Corn plant response rating (corn; [1]): 0
- Corn plant response rating (corn; [2]): 0
- Plant response rating, Corn (corn; [3]): 2
- Corn plant response rating (corn; [4]): 0
- Corn plant response rating (corn; [5]): 0
- Corn plant response rating (0 to 10 scale) (corn; Preemergence, Rate 250 g/ha): 0
- Corn plant response rating (corn; [6]): 9
- Plant response rating, Corn (corn; [7]): 0
- S. Flatsedge plant response rating (smallflower flatsedge): 0
- Giant foxtail plant response rating (giant foxtail; [1]): 0
- Giant foxtail plant response rating (giant foxtail; [2]): 3
- Plant response rating, Giant foxtail (giant foxtail; [3]): 4
- Giant foxtail plant response rating (giant foxtail; [4]): 9
- Giant foxtail plant response rating (giant foxtail; [5]): 9
- Giant foxtail plant response rating (0 to 10 scale) (giant foxtail; Preemergence, Rate 250 g/ha): 9
- Giant foxtail plant response rating (giant foxtail; [6]): 10
- Plant response rating, Giant foxtail (giant foxtail; [7]): 4
- Plant response rating, Wild oats (wild oat; [8]): 0
- Wild oats plant response rating (wild oat; [4]): 0
- Wild oats plant response rating (wild oat; [5]): 0
- Wild oats plant response rating (0 to 10 scale) (wild oat; Preemergence, Rate 250 g/ha): 6
- Wild oats plant response rating (wild oat; [6]): 9
- Plant response rating, Wild oats (wild oat; [9]): 0
- Rice plant response rating (rice): 0
- Morningglory plant response rating (morningglory; [1]): 3
- Morningglory plant response rating (morningglory; [2]): 10
- Plant response rating, Morningglory (morningglory; [3]): 10
- Morningglory plant response rating (morningglory; [4]): 0
- Morningglory plant response rating (morningglory; [5]): 0
- Morningglory plant response rating (0 to 10 scale) (morningglory; Preemergence, Rate 250 g/ha): 0
- Morningglory plant response rating (morningglory; [6]): 0
- Plant response rating, Morningglory (morningglory; [7]): 10
- Plant response rating, Wheat (wheat; [8]): 0
- Wheat plant response rating (wheat; [4]): 0
- Wheat plant response rating (wheat; [5]): 0
- Wheat plant response rating (0 to 10 scale) (wheat; Preemergence, Rate 250 g/ha): 0
- Wheat plant response rating (wheat; [6]): 4
- Plant response rating, Wheat (wheat; [9]): 0
- Rape plant response rating (rape; [1]): 0
- Rape plant response rating (rape; [2]): 0
- Plant response rating, Rape (rape; [3]): 0
- Rape plant response rating (rape; [4]): 0
- Rape plant response rating (rape; [5]): 0
- Rape plant response rating (0 to 10 scale) (rape; Preemergence, Rate 250 g/ha): 4
- Rape plant response rating (rape; [6]): 9
- Plant response rating, Rape (rape; [7]): 0
- Plant response rating, Soybean (soybean; [8]): 4
- Soybean plant response rating (soybean; [4]): 0
- Soybean plant response rating (soybean; [5]): 0
- Soybean plant response rating (0 to 10 scale) (soybean; Preemergence, Rate 250 g/ha): 0
- Soybean plant response rating (soybean; [6]): 0
- Plant response rating, Soybean (soybean; [9]): 4
- Cocklebur plant response rating (cocklebur; [1]): 0
- Cocklebur plant response rating (cocklebur; [2]): 2
- Plant response rating, Cocklebur (cocklebur; [3]): 2
- Cocklebur plant response rating (cocklebur; [4]): 0
- Cocklebur plant response rating (cocklebur; [5]): 0
- Cocklebur plant response rating (0 to 10 scale) (cocklebur; Preemergence, Rate 250 g/ha): 0
- Cocklebur plant response rating (cocklebur; [6]): 0
- Plant response rating, Cocklebur (cocklebur; [7]): 2
- Nutsedge plant response rating (purple nutsedge; [1]): 0
- Nutsedge plant response rating (purple nutsedge; [2]): 0
- Plant response rating, Nutsedge (purple nutsedge; [3]): 0
- Nutsedge plant response rating (purple nutsedge; [4]): 0
- Nutsedge plant response rating (purple nutsedge; [5]): 0
- Nutsedge plant response rating (0 to 10 scale) (purple nutsedge; Preemergence, Rate 250 g/ha): 0
- Nutsedge plant response rating (purple nutsedge; [6]): 0
- Plant response rating, Nutsedge (purple nutsedge; [7]): 0
- B. signalgrass plant response rating (surinam grass; [1]): 0
- B. signalgrass plant response rating (surinam grass; [2]): 0
- Plant response rating, B. signalgrass (surinam grass; [3]): 4
- B. signalgrass plant response rating (surinam grass; [4]): 0
- B. signalgrass plant response rating (surinam grass; [5]): 9
- B. signalgrass plant response rating (0 to 10 scale, 0 is no effect, 10 is complete control) (surinam grass; Preemergence, Rate 250 g/ha): 9
- B. signalgrass plant response rating (surinam grass; [6]): 9
- Plant response rating, B. signalgrass (surinam grass; [7]): 0
- Crabgrass plant response rating (crabgrass; [1]): 0
- Crabgrass plant response rating (crabgrass; [2]): 0
- Plant response rating, Crabgrass (crabgrass; [3]): 6
- Crabgrass plant response rating (crabgrass; [4]): 7
- Crabgrass plant response rating (crabgrass; [5]): 9
- Crabgrass plant response rating (0 to 10 scale) (crabgrass; Preemergence, Rate 250 g/ha): 9
- Crabgrass plant response rating (crabgrass; [6]): 9
- Plant response rating, Crabgrass (crabgrass; [7]): 6
- Plant response rating, Velvetleaf (velvetleaf; [8]): 3
- Velvetleaf plant response rating (velvetleaf; [4]): 0
- Velvetleaf plant response rating (velvetleaf; [5]): 0
- Velvetleaf plant response rating (0 to 10 scale) (velvetleaf; Preemergence, Rate 250 g/ha): 0
- Velvetleaf plant response rating (velvetleaf; [6]): 7
- Plant response rating, Velvetleaf (velvetleaf; [9]): 2
- Plant response rating, Redroot pigweed (pigweed; [8]): 4
- Redroot pigweed plant response rating (pigweed; [4]): 7
- Redroot pigweed plant response rating (pigweed; [5]): 9
- Redroot pigweed plant response rating (0 to 10 scale) (pigweed; Preemergence, Rate 250 g/ha): 9
- Redroot pigweed plant response rating (pigweed; [6]): 10
- Plant response rating, Redroot pigweed (pigweed; [9]): 4
